Laboratory results as given in patent CN111517978A, “环己烯基-dl-天门冬氨酸衍生物及其制备方法、组合物与用途” (Zhongshan Wanhan Pharmaceutical Co ltd, priority 2020, dated 2020).

Columns and labels:
Format in all cases: cell-based
Details in all cases: component A (XP or YS) alone
[1] = test system: Shigella flexneri 2aEW-10 (福氏志贺氏菌2aEW-10); experiment: Antibacterial action (MIC, FICI) against Shigella flexneri 2aEW-10 (Table 15)
[2] = test system: Bacteroides fragilis ATCC25285 (脆弱拟杆菌ATCC25285); experiment: Antibacterial action (MIC, FICI) against Bacteroides fragilis ATCC25285 (Table 26)
[3] = test system: Micrococcus lysodeikticus 2665 (溶壁微球菌2665); experiment: Antibacterial action (MIC, FICI) against Micrococcus lysodeikticus 2665 (Table 4)
[4] = test system: Klebsiella pneumoniae NCTC 9632 (肺炎克雷伯菌NCTC 9632); experiment: Antibacterial action (MIC, FICI) against Klebsiella pneumoniae NCTC 9632 (Table 9)
[5] = test system: Clostridium perfringens ATCC13124 (产气荚膜梭状芽孢杆菌ATCC13124)
[6] = test system: Stenotrophomonas maltophilia NCTC 13637 (嗜麦芽窄食单胞菌NCTC 13637); experiment: Antibacterial action (MIC, FICI) against Stenotrophomonas maltophilia NCTC 13637 (Table 18)
[7] = test system: Escherichia coli ATCC25922 (大肠杆菌ATCC25922); experiment: Antibacterial action (MIC, FICI) against Escherichia coli ATCC25922 (Table 7)
[8] = test system: Propionibacterium acnes ATCC11828 (痤疮丙酸杆菌ATCC11828); experiment: Antibacterial action (MIC, FICI) against Propionibacterium acnes ATCC11828 (Table 21)
[9] = test system: Providencia stuartii 57 (斯氏普罗威登斯菌57); experiment: Antibacterial action (MIC, FICI) against Providencia stuartii 57 (Table 12)
[10] = test system: Serratia marcescens IFO 3736 (黏质沙雷氏菌IFO 3736); experiment: Antibacterial action (MIC, FICI) against Serratia marcescens IFO 3736 (Table 10)
[11] = test system: Streptococcus intermedius ATCC27335 (中间链球菌ATCC27335); experiment: Antibacterial action (MIC, FICI) against Streptococcus intermedius ATCC27335 (Table 20)

Row | Compound | MIC_A [1] [ng/mL] | MIC_A [2] [ng/mL] | MIC_A [3] [ng/mL] | MIC_A [4] [ng/mL] | MIC_A [5] [ng/mL] | MIC_A [6] [ng/mL] | MIC_A [7] [ng/mL] | MIC_A [8] [ng/mL] | MIC_A [9] [ng/mL] | MIC_A [10] [ng/mL] | MIC_A [11] [ng/mL]
1 | CCOC(=O)C1=C[C@@H](OC(CC)CC)[C@H](NC(CC(=O)O)C(=O)O)[C@@H](N=[N+]=[N-])C1 (mixture of isomers) [化合物21P, ((1R,2R,6S)-6-叠氮基-4-(乙氧基羰基)-2-(戊-3-基氧基)环己-3-烯-1-基)-DL-天门冬氨酸] | 17 | 13 | 13 | 15 | 56 | – | – | – | – | – | –
2 | CC(=O)N[C@H]1[C@H](O)C=C(C(=O)O)C[C@@H]1N [化合物15S, (3R,4R,5S)-4-乙酰氨基-5-氨基-3-羟基环己-1-烯-1-羧酸] | 303 | 730 | – | – | 681 | 1138 | 354 | – | – | – | –
3 | CCOC(=O)C1=C[C@@H](OC(CC)CC)[C@H](N)[C@@H](N=[N+]=[N-])C1 [化合物21S, 乙基(3R,4R,5S)-4-氨基-5-叠氮基-3-(戊-3-基氧基)环己-1-烯-1-羧酸酯] | 533 | 375 | 407 | 613 | 884 | – | – | – | – | – | –
4 | CCOC(=O)C1=C[C@@H](OC(CC)CC)[C@@H](NC(C)=O)[C@H](NC(CC(=O)O)C(=O)O)C1 (mixture of isomers) [化合物5P, ((1R,5R,6S)-6-乙酰氨基-3-(乙氧基羰基)-5-(戊-3-基氧基)环己-3-烯-1-基)-DL-天门冬氨酸] | 24 | 20 | – | 17 | – | – | – | 15 | – | – | –
5 | CCOC(=O)C1=C[C@@H](OC(CC)CC)[C@@H](NC(C)=O)[C@H](N)C1 [化合物5S, 乙基(3R,4S,5R)-4-乙酰氨基-5-氨基-3-(戊-3-基氧基)环己-1-烯-1-羧酸酯] | 483 | 323 | – | 507 | – | – | – | 919 | – | – | –
6 | CCOC(=O)C1=C[C@@H](OC(CC)CC)[C@H](NC(C)=O)[C@H](N)C1 [化合物9S, 乙基(3R,4R,5R)-4-乙酰氨基-5-氨基-3-(戊-3-基氧基)环己-1-烯-1-羧酸酯] | – | 316 | 462 | – | – | – | – | – | 440 | 864 | 410
7 | CC(=O)N[C@H]1[C@H](O)C=C(C(=O)O)C[C@@H]1NC(CC(=O)O)C(=O)O (mixture of isomers) [化合物15P, ((1S,5R,6R)-6-乙酰氨基-3-羧基-5-羟基环己-3-烯-1-基)-DL-天门冬氨酸] | 3 | 24 | – | – | 47 | 24 | 15 | – | – | – | –
8 | CCOC(=O)C1=C[C@H](OC(CC)CC)[C@H](NC(CC(=O)O)C(=O)O)[C@@H](NC(C)=O)C1 (mixture of isomers) [化合物18P, ((1R,2S,6S)-6-乙酰氨基-4-(乙氧基羰基)-2-(戊-3-基氧基)环己-3-烯-1-基)-DL-天门冬氨酸] | – | 17 | 6 | – | – | – | – | – | 22 | 53 | 27
9 | CCOC(=O)C1=C[C@H](OC(CC)CC)[C@H](N)[C@@H](NC(C)=O)C1 [化合物18S, 乙基(3S,4R,5S)-5-乙酰氨基-4-氨基-3-(戊-3-基氧基)环己-1-烯-1-羧酸酯] | – | 305 | 418 | – | – | – | – | – | 959 | 992 | 1137
10 | CCC(CC)O[C@@H]1C=C(C(=O)O)C[C@H](NC(CC(=O)O)C(=O)O)[C@H]1NC(C)=O (mixture of isomers) [化合物10P, ((1S,5R,6R)-6-乙酰氨基-3-羧基-5-(戊-3-基氧基)环己-3-烯-1-基)-DL-天门冬氨酸] | 25 | 6 | – | – | – | – | – | 35 | – | – | –
11 | CCC(CC)O[C@@H]1C=C(C(=O)O)C[C@H](N)[C@H]1NC(C)=O [化合物10S, (3R,4R,5S)-4-乙酰氨基-5-氨基-3-(戊-3-基氧基)环己-1-烯-1-羧酸] | 671 | 484 | – | – | – | – | – | 737 | – | – | –
